# Data from patent US11117921B2, “Methods for synthesizing nucleotide analogues with disulfide linkers” (IsoPlexis Corporation, priority 2015, dated 2021).
# Experiment: Cleavage experiments with thiol cleavage agents, RP-HPLC (FIG. 77, 78A-B)
# Conditions: RP-HPLC after 10 minutes of incubation with cleave reagent
# Text: In addition to these a variety of suitable cleaving agents can be used such as Bis(2-mercaptoethyl)sulfone (BMS) and N,N′-dimethyl-N,N-bis(mercaptoacetyl)hydrazine (DMH) (Singh et al., Bioorg. Chem., 22, 109-115 (1994). Reactions can be further catalyzed by inclusion of selenols (Singh et al. Anal Biochem. 1995 Nov. 20; 232(1):86-91 [18]). Borohydrides, such as sodium borohydrides can also be used for this purpose (Stahl et al., Anal. Chem., 1957, 29 (1), pp 154-155 [19]) as well as ascorbic acid (Nardai et al., J. Biol. Chem. 276, 8825-8828 (2001)). In addition, enzymatic methods for cleavage of disulfide bonds are also well known such as disulfide and thioreductase and can be used with compounds of the present invention (Holmgren et al., Methods in Enzymology, Volume 252, 1995, Pages 199-208 [21]).
row,Structure (SMILES),composition of cleavage reaction mixture (extent of cleavage)
1,N[C@@H](CS)C(=O)O [L-cysteine],full cleavage of both linker and the 3′-protective groups
2,OC(=S)CCC(O)=S [dithiosuccinic acid],selective cleavage of 3′-O-protective group
3,NCCS [cysteamine],full cleavage of both linker and the 3′-protective groups
4,"O[C@H](CS)[C@H](O)CS (racemic) [DTT, dithiothreitol]",full cleavage of both linker and the 3′-protective groups
